Laboratory results reported in patent publication US20170334934A1, “Macrocyclic picolinamides as fungicides” (DOW AGROSCIENCES LLC, priority 2014, published 2017).
Where two headings read alike, the source gives them in different places.

Columns and labels:
Puccinia triticina = assay: Fungicidal activity: Wheat Brown Rust (PUCCRT), wheat seedlings; assay type: in vivo; details: for pest or weed control at 100 µg/mL: High Volume (100 ppm); for pest or weed control at 121.5 g/ha: Low Volume (121.5 g/H)
Method: Technical grades of materials were dissolved in acetone, which were then mixed with nine volumes of water containing 110 ppm Triton X-100. The fungicide solutions were applied onto wheat seedlings using an automated booth sprayer to run-off. All sprayed plants were allowed to air dry prior to further handling. All fungicides were evaluated using the aforementioned method for their activity vs. all target diseases, unless stated otherwise. Wheat leaf blotch and brown rust activity were also evaluated using track spray applications, in which case the fungicides were formulated as EC formulations, containing 0.1% Trycol 5941 in the spray solutions. Wheat plants (variety Yuma) were grown from seed in a greenhouse in 50% mineral soil/50% soil-less Metro mix until the first leaf was fully emerged, with 7-10 seedlings per pot. These plants were inoculated with an aqueous spore suspension of Zymoseptoria tritici either prior to or after fungicide treatments. After inoculation the plants were kept in 100% relative humidity (one day in a dark dew chamber followed by two to three days in a lighted dew chamber at 20° C.) to permit spores to germinate and infect the leaf. The plants were then transferred to a greenhouse set at 20° C. for disease to develop. When disease symptoms were fully expressed on the 1st leaves of untreated plants, infection levels were assessed on a scale of 0 to 100 percent disease severity. Percent disease control was calculated using the ratio of disease severity on treated plants relative to untreated plants. Example B: Evaluation of Fungicidal Activity: Wheat Brown Rust (Puccinia triticina; Synonym: Puccinia recondita f. sp. tritici; Bayer Code PUCCRT) Wheat plants (variety Yuma) were grown from seed in a greenhouse in 50% mineral soil/50% soil-less Metro mix until the first leaf was fully emerged, with 7-10 seedlings per pot. These plants were inoculated with an aqueous spore suspension of Puccinia triticina either prior to or after fungicide treatments. After inoculation the plants were kept in a dark dew room at 22° C. with 100% relative humidity overnight to permit spores to germinate and infect the leaf. The plants were then transferred to a greenhouse set at 24° C. for disease to develop. Fungicide formulation, application and disease assessment followed the procedures as described in the Example A.

[1] = system: Mycosphaerella graminicola; Anamorph: Zymoseptoria tritici; assay: Fungicidal activity: Leaf Blotch of Wheat (SEPTTR), wheat seedlings; assay type: in vivo; details: wheat; for pest or weed control at 100 µg/mL: High Volume (100 ppm); for pest or weed control at 121.5 g/ha: Low Volume (121.5 g/H)
Method: Example A: Evaluation of Fungicidal Activity: Leaf Blotch of Wheat (Mycosphaerella graminicola; Anamorph: Zymoseptoria tritici; Bayer Code […]) Technical grades of materials were dissolved in acetone, which were then mixed with nine volumes of water containing 110 ppm Triton X-100. The fungicide solutions were applied onto wheat seedlings using an automated booth sprayer to run-off. All sprayed plants were allowed to air dry prior to further handling. All fungicides were evaluated using the aforementioned method for their activity vs. all target diseases, unless stated otherwise. Wheat leaf blotch and brown rust activity were also evaluated using track spray applications, in which case the fungicides were formulated as EC formulations, containing 0.1% Trycol 5941 in the spray solutions. Wheat plants (variety Yuma) were grown from seed in a greenhouse in 50% mineral soil/50% soil-less Metro mix until the first leaf was fully emerged, with 7-10 seedlings per pot. These plants were inoculated with an aqueous spore suspension of Zymoseptoria tritici either prior to or after fungicide treatments. After inoculation the plants were kept in 100% relative humidity (one day in a dark dew chamber followed by two to three days in a lighted dew chamber at 20° C.) to permit spores to germinate and infect the leaf. The plants were then transferred to a greenhouse set at 20° C. for disease to develop. When disease symptoms were fully expressed on the 1st leaves of untreated plants, infection levels were assessed on a scale of 0 to 100 percent disease severity. Percent disease control was calculated using the ratio of disease severity on treated plants relative to untreated plants.

[2] = 24 h, 1 Day Protectant, read-out: PUCCRT disease control rating, 1DP
[3] = 72 h, 3 Day Curative, read-out: PUCCRT disease control rating, 3DC
[4] = 24 h, 1 Day Protectant, read-out: SEPTTR disease control rating, 1DP
[5] = 72 h, 3 Day Curative, read-out: SEPTTR disease control rating, 3DC

SMILES | pest or weed control at 100 µg/mL (Puccinia triticina; [2]) | pest or weed control at 100 µg/mL (Puccinia triticina; [3]) | pest or weed control at 100 µg/mL [1, 4] | pest or weed control at 100 µg/mL [1, 5] | pest or weed control at 121.5 g/ha (Puccinia triticina; [2]) | pest or weed control at 121.5 g/ha (Puccinia triticina; [3]) | pest or weed control at 121.5 g/ha [1, 4] | pest or weed control at 121.5 g/ha [1, 5]
CC[C@H]1OCC[C@H](NC(=O)c2nccc(OC)c2O)C(=O)O[C@@H](C)[C@@H]1Oc1ccccc1 [Compound 63] | > 70% | > 70% | > 70% | > 70% |  |  |  | 
CC[C@H]1OCC[C@H](NC(=O)c2nccc(OC)c2O)C(=O)O[C@@H](C)[C@@H]1Oc1ccc(F)cc1 [Compound 64] | > 70% | > 70% | > 70% | > 70% |  |  |  | 
CC[C@H]1OCC[C@H](NC(=O)c2nccc(OC)c2O)C(=O)O[C@@H](C)[C@@H]1OC(=O)C(C)C [Compound 65] | > 70% | > 70% | < 70% | < 70% |  |  |  | 
COc1ccnc(C(=O)N[C@H]2CCOC[C@@H](OCc3ccccc3)[C@H](C)OC2=O)c1O [Compound 66] | > 70% | > 70% | < 70% | < 70% |  |  |  | 
COc1ccnc(C(=O)N[C@H]2CCOC[C@@H](OCC(C)C)[C@H](C)OC2=O)c1O [Compound 67] | > 70% | > 70% | > 70% | > 70% |  |  |  | 
COc1ccnc(C(=O)N[C@H]2CCOC[C@@H](OCCCC(F)(F)F)[C@H](C)OC2=O)c1O [Compound 68] | > 70% | > 70% | < 70% | < 70% |  |  |  | 
COc1ccnc(C(=O)N[C@H]2CCOC[C@@H](Oc3ccccc3)[C@H](C)OC2=O)c1O [Compound 69] | > 70% | > 70% | > 70% | > 70% |  |  |  | 
COc1ccnc(C(=O)N[C@H]2CCOC[C@@H](OC(=O)C(C)C)[C@H](C)OC2=O)c1O [Compound 70] | < 70% | < 70% | < 70% | < 70% |  |  |  | 
COc1ccnc(C(=O)N[C@H]2CCO[C@H](Cc3ccccc3)[C@@H](OCC(C)C)[C@H](C)OC2=O)c1OC(C)=O [Compound 71] |  |  |  |  | > 70% | > 70% | > 70% | > 70%
COc1ccnc(C(=O)N[C@H]2CCO[C@H](Cc3ccccc3)[C@@H](OCC(C)C)[C@H](C)OC2=O)c1OCOC(C)=O [Compound 72] |  |  |  |  | > 70% | > 70% | > 70% | > 70%
COc1ccnc(C(=O)N[C@H]2CCO[C@H](Cc3ccc(F)cc3)[C@@H](Oc3ccccc3)[C@H](C)OC2=O)c1OCOC(C)=O [Compound 73] |  |  |  |  | > 70% | > 70% | > 70% | > 70%
COc1ccnc(C(=O)N[C@H]2CCO[C@H](Cc3ccc(F)cc3)[C@@H](OC(=O)C(C)C)[C@H](C)OC2=O)c1OCOC(C)=O [Compound 74] |  |  |  |  | > 70% | > 70% | > 70% | > 70%
